Reference: patent US12091426B2, “Bifunctional degraders of hematopoietic progenitor kinase and therapeutic uses thereof” (Nurix Therapeutics, Inc., priority 2021, dated 2024)

Target: T1, HPK1 (Homo sapiens, UniProt Q92918)
T1 construct: A HiBiT tag was introduced by CRISPR on the N terminus of HPK1 in Jurkat cells; host or cells: Jurkat cells (ATCC TIB-152), monoclonal line with CRISPR knock-in of HiBiT at the endogenous HPK1 locus
Test: HPK1 Cellular HiBit Degradation Assay
Assay type: cell-based
Conditions: HiBiT HPK1 Jurkat cells, 24 hrs; for DC50: concentration at which 50% of HPK1 was remaining, read-out: DC50 Category; for Dmax: Jurkat, read-out: Dmax Category
Procedure, shortened: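 HPK1 levels are read by HiBiT luminescence after 24 h exposure of HiBiT-knock-in Jurkat cells to compound at 10 uM–0.1 nM final (11 points). Relative to DMSO (100%), DC50 is the concentration leaving 50% HPK1 from a variable-slope fit, and Dmax is 100 minus minimum remaining. Viability checked in-plate.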

[1] = maximum degradation vs DMSO vehicle control

T1 sequence (Q92918 whole entry): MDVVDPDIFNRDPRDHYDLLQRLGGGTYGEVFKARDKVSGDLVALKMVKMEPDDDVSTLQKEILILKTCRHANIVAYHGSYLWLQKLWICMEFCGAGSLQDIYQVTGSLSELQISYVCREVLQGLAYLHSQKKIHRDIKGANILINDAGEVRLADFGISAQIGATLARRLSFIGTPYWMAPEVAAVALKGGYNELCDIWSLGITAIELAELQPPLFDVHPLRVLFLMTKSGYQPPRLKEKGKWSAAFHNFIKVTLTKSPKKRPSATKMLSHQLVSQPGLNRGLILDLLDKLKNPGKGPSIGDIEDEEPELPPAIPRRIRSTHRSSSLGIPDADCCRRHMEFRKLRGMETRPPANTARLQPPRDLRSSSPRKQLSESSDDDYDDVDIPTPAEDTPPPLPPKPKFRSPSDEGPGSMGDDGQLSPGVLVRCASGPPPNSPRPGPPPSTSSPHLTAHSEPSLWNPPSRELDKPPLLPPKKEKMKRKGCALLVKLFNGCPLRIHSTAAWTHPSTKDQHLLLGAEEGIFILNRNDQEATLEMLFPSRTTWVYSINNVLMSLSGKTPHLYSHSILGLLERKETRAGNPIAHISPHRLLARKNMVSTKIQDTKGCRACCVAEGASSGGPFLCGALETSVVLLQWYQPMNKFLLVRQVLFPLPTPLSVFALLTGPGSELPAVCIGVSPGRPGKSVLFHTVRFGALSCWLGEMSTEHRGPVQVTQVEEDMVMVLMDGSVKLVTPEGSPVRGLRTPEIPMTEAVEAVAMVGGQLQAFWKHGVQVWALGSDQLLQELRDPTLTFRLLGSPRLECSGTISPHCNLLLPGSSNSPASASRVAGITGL

Row | Compound | DC50 | Dmax [1] | Dmax Category [1]
1 | CC(C)Oc1nc(-c2ccc3c(c2)N([C@H]2C[C@@H](N4CCCCC4)C2)C(=O)C32CCN(C(=O)C3(C)CCN(C(=O)C4CCN(c5ccc(C6CCC(=O)NC6=O)cn5)CC4)CC3)CC2)cc2ncn(C(C)C)c12 (stereo partly drawn) [Example 169, 3-(6-{4-[4-methyl-4-({2-oxo-6-[3-(propan-2-yl)-4-(propan-2-yloxy)-3H-imidazo[4,5-c]pyridin-6-yl]-1-[(1S,3S)-3-(piperidin-1-yl)cyclobutyl]-1,2-dihydrospiro[indole-3,4′-piperidin]-1′-yl}carbonyl)piperidine-1-carbonyl]piperidin-1-yl}pyridin-3-yl)piperidine-2,6-dione] | < 100 nM | > 85% | –
2 | CC(C)n1cnc2cc(-c3ccc4c(c3)N([C@H]3C[C@@H](N5CCCCC5)C3)C(=O)C43CCN(C(=O)[C@H]4[C@@H]5C[C@H]4CN(C(=O)C4CCN(c6ccc(C7CCC(=O)NC7=O)cn6)CC4)C5)CC3)nc(NC3CC3)c21 (stereo partly drawn) [Example 239, 3-(6-(4-((1R,5S,6S)-6-(6-(4-(cyclopropylamino)-3-isopropyl-3H-imidazo[4,5-c]pyridin-6-yl)-2-oxo-1-((1S,3S)-3-(piperidin-1-yl)cyclobutyl)spiro[indoline-3,4′-piperidine]-1′-carbonyl)-3-Azabicyclo[3.1.1]heptane-3-carbonyl)piperidin-1-yl)pyridin-3-yl)piperidine-2,6-dione] | < 100 nM | 50 to 70% | –
3 | CC(C)n1cnc2cc(-c3ccc4c(c3)N([C@H]3C[C@@H](N5CCC[C@H](F)C5)C3)C(=O)C43CCN(C(=O)C4(C)CCN(C(=O)C5CCN(c6ccc(C7CCC(=O)NC7=O)cn6)CC5)CC4)CC3)nc(NC3CC3)c21 (mixture of isomers) [Example 203, (3RS)-3-(6-{4-[4-({6-[4-(cyclopropylamino)-3-(propan-2-yl)-3H-imidazo[4,5-c]pyridin-6-yl]-2-oxo-1-[(1S,3S)-3-[(3S)-3-fluoropiperidin-1-yl]cyclobutyl]-1,2-dihydrospiro[indole-3,4′-piperidin]-1′-yl}carbonyl)-4-methylpiperidine-1-carbonyl]piperidin-1-yl}pyridin-3-yl)piperidine-2,6-dione] | < 100 nM | 70 to 85% | –
4 | CC(C)n1cnc2cc(-c3ccc4c(c3)N([C@H]3C[C@@H](N5CCCCC5)C3)C(=O)C43CCN(C(=O)C45CC(CN(C(=O)C6CCN(c7ccc(C8CCC(=O)NC8=O)cn7)CC6)C4)C5)CC3)nc(NC3CC3)c21 (mixture of isomers) [Example 271, (3RS)-3-(6-{4-[1-({6-[4-(cyclopropylamino)-3-(propan-2-yl)-3H-imidazo[4,5-c]pyridin-6-yl]-2-oxo-1-[(1S,3S)-3-(piperidin-1-yl)cyclobutyl]-1,2-dihydrospiro[indole-3,4′-piperidin]-1′-yl}carbonyl)-3-azabicyclo[3.1.1]heptane-3-carbonyl]piperidin-1-yl}pyridin-3-yl)piperidine-2,6-dione] | < 100 nM | 70 to 85% | –
5 | CC(C)n1cnc2cc(-c3ccc4c(c3)N([C@H]3C[C@@H](N5CCCCC5)C3)C(=O)C43CCN(C(=O)C4C5CC4CN(C(=O)[C@H]4CC[C@H](Oc6ccc(C7CCC(=O)NC7=O)cc6)CC4)C5)CC3)nc(NC3CC3)c21 (stereo partly drawn) [Example 241, 3-(4-{[(1R,4R)-4-[6-({6-[4-(cyclopropylamino)-3-(propan-2-yl)-3H-imidazo[4,5-c]pyridin-6-yl]-2-oxo-1-[(1S,3S)-3-(piperidin-1-yl)cyclobutyl]-1,2-dihydrospiro[indole-3,4′-piperidin]-1′-yl}carbonyl)-3-azabicyclo[3.1.1]heptane-3-carbonyl]cyclohexyl]oxy}phenyl)piperidine-2,6-dione] | < 100 nM | > 85% | –
6 | CC(C)n1cnc2cc(-c3ccc4c(c3)N(C3CC(N5CCCCC5)C3)C(=O)C43CCN(C(=O)CC4(C)CCN(C(=O)C5CCN(c6ccc(C7CCC(=O)NC7=O)cn6)CC5)CC4)CC3)nc(NC3CC3)c21 (racemic) [Example 149, (3RS)-3-(6-{4-[4-(2-{6-[4-(cyclopropylamino)-3-(propan-2-yl)-3H-imidazo[4,5-c]pyridin-6-yl]-2-oxo-1-[(1S,3S)-3-(piperidin-1-yl)cyclobutyl]-1,2-dihydrospiro[indole-3,4′-piperidin]-1′-yl}-2-oxoethyl)-4-methylpiperidine-1-carbonyl]piperidin-1-yl}pyridin-3-yl)piperidine-2,6-dione] | < 100 nM | – | B (B: >70%-<85%)
7 | CC(C)n1cnc2cc(-c3ccc4c(c3)N([C@H]3C[C@@H](N5CCCCC5)C3)C(=O)C43CCN(C(=O)C[C@@H]4CCCN(C(=O)CC5CCN(c6ccc(C7CCC(=O)NC7=O)cn6)CC5)C4)CC3)nc(NC3CC3)c21 (mixture of isomers) [Example 299, (3RS)-3-[6-(4-{2-[(3S)-3-(2-{6-[4-(cyclopropylamino)-3-(propan-2-yl)-3H-imidazo[4,5-c]pyridin-6-yl]-2-oxo-1-[(1S,3S)-3-(piperidin-1-yl)cyclobutyl]-1,2-dihydrospiro[indole-3,4′-piperidin]-1′-yl}-2-oxoethyl)piperidin-1-yl]-2-oxoethyl}piperidin-1-yl)pyridin-3-yl]piperidine-2,6-dione] | 100 to 500 nM | 70 to 85% | –

Now from value to compound, other results behind:

Row | DC50 | Dmax [1] | Compound | Dmax Category [1]
8 | < 100 nM | 50 to 70% | CC(C)n1cnc2cc(-c3ccc4c(c3)N([C@H]3C[C@@H](N5CCCCC5)C3)C(=O)C43CCN(C(=O)C4CCN(C(=O)C5CCN(c6ccc(N7CCC(=O)NC7=O)cn6)CC5)CC4)CC3)nc(NC3CC3)c21 [Example 79, 1-(6-{4-[4-({6-[4-(cyclopropylamino)-3-(propan-2-yl)-3H-imidazo[4,5-c]pyridin-6-yl]-2-oxo-1-[(1S,3S)-3-(piperidin-1-yl)cyclobutyl]-1,2-dihydrospiro[indole-3,4′-piperidin]-1′-yl}carbonyl)piperidine-1-carbonyl]piperidin-1-yl}pyridin-3-yl)-1,3-diazinane-2,4-dione] | –
9 | 500 to 1000 nM | 50 to 70% | CC(C)n1cnc2cc(-c3ccc4c(c3)N([C@H]3C[C@@H](N5CCCCC5)C3)C(=O)C43CCN(C(=O)c4ccc(C(=O)NC5CCN(c6ccc7c(c6)C(=O)N(C6CCC(=O)NC6=O)C7=O)CC5)cc4)CC3)nc(NC3CC3)c21 (mixture of isomers) [Example 43, 4-({6-[4-(cyclopropylamino)-3-(propan-2-yl)-3H-imidazo[4,5-c]pyridin-6-yl]-2-oxo-1-[(1S,3S)-3-(piperidin-1-yl)cyclobutyl]-1,2-dihydrospiro[indole-3,4′-piperidin]-1′-yl}carbonyl)-N-(1-{2-[(3RS)-2,6-dioxopiperidin-3-yl]-1,3-dioxo-2,3-dihydro-1H-isoindol-5-yl}piperidin-4-yl)benzamide] | –
10 | 100 to 500 nM | 70 to 85% | CC(C)n1cnc2cc(-c3ccc4c(c3)N([C@H]3C[C@@H](N5CCCCC5)C3)C(=O)C43CCN(C(=O)C4CCC5(CC4)CCN(C(=O)C4CCN(c6ccc(C7CCC(=O)NC7=O)cn6)CC4)CC5)CC3)nc(NC3CC3)c21 (mixture of isomers) [Example 295, (3RS)-3-(6-{4-[9-({6-[4-(cyclopropylamino)-3-(propan-2-yl)-3H-imidazo[4,5-c]pyridin-6-yl]-2-oxo-1-[(1S,3S)-3-(piperidin-1-yl)cyclobutyl]-1,2-dihydrospiro[indole-3,4′-piperidin]-1′-yl}carbonyl)-3-azaspiro[5.5]undecane-3-carbonyl]piperidin-1-yl}pyridin-3-yl)piperidine-2,6-dione] | –
11 | < 100 nM | 70 to 85% | CC(C)n1cnc2cc(-c3ccc4c(c3)N([C@H]3C[C@@H](N5CCCCC5)C3)C(=O)C43CCN(C(=O)[C@@H]4CCN(C(=O)[C@H]5CC[C@H](Nc6ccc(C7CCC(=O)NC7=O)cc6)CC5)C4)CC3)nc(NC3CC3)c21 (mixture of isomers) [Example 2, (3RS)-3-(4-{[(1R,4R)-4-[(3R)-3-({6-[4-(cyclopropylamino)-3-(propan-2-yl)-3H-imidazo[4,5-c]pyridin-6-yl]-2-oxo-1-[(1S,3S)-3-(piperidin-1-yl)cyclobutyl]-1,2-dihydrospiro[indole-3,4′-piperidin]-1′-yl}carbonyl)pyrrolidine-1-carbonyl]cyclohexyl]amino}phenyl)piperidine-2,6-dione] | –
12 | 100 to 500 nM | > 85% | CC(C)n1cnc2cc(-c3ccc4c(c3)N([C@H]3C[C@@H](N5CCCCC5)C3)C(=O)C43CCN(C(=O)[C@@H]4CCN(C(=O)[C@H]5CC[C@H](Nc6cccc7c6C(=O)N(C6CCC(=O)NC6=O)C7=O)CC5)C4)CC3)nc(Nc3ccccc3F)c21 (mixture of isomers) [Example 9, 2-[(3RS)-2,6-dioxopiperidin-3-yl]-4-{[(1R,4R)-4-[(3R)-3-[(6-{4-[(2-fluorophenyl)amino]-3-(propan-2-yl)-3H-imidazo[4,5-c]pyridin-6-yl}-2-oxo-1-[(1S,3S)-3-(piperidin-1-yl)cyclobutyl]-1,2-dihydrospiro[indole-3,4′-piperidin]-1′-yl)carbonyl]pyrrolidine-1-carbonyl]cyclohexyl]amino}-2,3-dihydro-1H-isoindole-1,3-dione] | –
13 | < 100 nM | > 85% | CC(C)n1cnc2cc(-c3ccc4c(c3)N([C@H]3C[C@@H](N5CCCCC5)C3)C(=O)C43CCN(C(=O)[C@@H]4CCN(C(=O)[C@H]5CC[C@H](N(C)c6ccc(C7CCC(=O)NC7=O)cn6)CC5)C4)CC3)nc(Nc3ccccc3F)c21 (mixture of isomers) [Example 127, (3RS)-3-(6-{METHYL [(1R,4R)-4-[(3R)-3-[(6-{4-[(2-fluorophenyl)amino]-3-(propan-2-yl)-3H-imidazo[4,5-c]pyridin-6-yl}-2-oxo-1-[(1S,3S)-3-(piperidin-1-yl)cyclobutyl]-1,2-dihydrospiro[indole-3,4′-piperidin]-1′-yl)carbonyl]pyrrolidine-1-carbonyl]cyclohexyl]amino}pyridin-3-yl)piperidine-2,6-dione] | –
